Measured values taken from US20200188465A1, “TREATMENT OF CYTOKINE RELEASE SYNDROME BY DECREASING LEVEL OF PROINFLAMMATORY CYTOKINE” (Gwo Xi Stem Cell Applied Technology Co., Ltd., priority 2018, published 2020).
“Also recorded” adds a separate entry of the source. Read-outs that look alike come from different tables or passages of the source.

How the values were obtained:
Format in all cases: cell-based, Human
IFN-γ [1] = assay: IFN-γ release (ELISA) of Jurkat T cells pre-stimulated with PMA plus ionomycin, then drug (Embodiment 1); details: for IFN-γ/cell viability: Jurkat pretreated PMA + ionomycin; for IFN-γ content in the cells is reduced at least: summary, concentration not given
Method: (§1) Human Jurkat T cell line (Clone E6-1, ATCC TIB 152) and THP-1 were used in the embodiments and purchased from Bioresource Collection and Research Centre (BCRC), Taiwan. The cells were maintained in RPMI 1640 medium (Gibco, Carlsbad, Calif., USA) with 2 mM L-glutamine adjusted to contain 1.5 g/L sodium bicarbonate, 4.5 g/L glucose, 10 mM HEPES, 1.0 mM sodium pyruvate, 1% (v/v) penicillin-streptomycin (HyClone, Logan, Utah), and 10% (v/v) fetal bovine serum (FBS; HyClone). The cells were kept in the incubator with 5% CO2 at 37° C. The passages were performed when the cell density didn't allow the cell concentration to exceed 3×10^6 cells/mL.
(§2) Jurkat cells were seeded in 48-well culture plates at a density of 5.0×10^5 cells/mL in culture medium. To promote Interferon gamma (IFN-γ; IFNG) production, the cells were stimulated with or without the combination of PMA and Ionomycin in culture medium. THP-1 cells were treated with or without the LPS that promoted IL6 production.
(§3) The culture supernatants were harvested by centrifugation and stored at −20° C. for cytokine analysis. The concentration of IFN-γ and IL6 were measured by ELISA kit (Invitrogen, Carlsbad, Calif., USA) according to the manufacturer's instructions.
(§4) After 6 and 24 hours, the supernatants were collected for cell viability analysis and cytokine analysis. The concentration of cytokine was measured by Human IFN-γ ELISA kit (Invitrogen) according to the manufacturers.

Jurkat T cells = assay: Cell viability (MTS) of Jurkat T cells pre-stimulated with PMA plus ionomycin, then drug (Embodiment 1)
Method: as §1, §2
(§5) The cell viability was determined using MTS reagent (Promega). Assays were performed by adding MTS to each well for 3 hours at 37° C. with 5% CO2. The amount of formazan converted by living cells, and then recording absorbance at 490 nm with a 96-well plate reader.
as §4

THP-1 cells = assay: Cell viability (MTS) of THP-1 cells pre-stimulated with LPS, then drug (Embodiment 2)
IL6 = IL6 release (ELISA) of THP-1 cells pre-stimulated with LPS, then drug (Embodiment 2); details: for IL6/cell viability: THP-1 pretreated LPS; for IL-6 content in the cells is reduced at least: summary, concentration not given
Method: HyClone). […] The passages were performed when the cell density didn't allow the cell concentration to exceed 3×10^6 cells/mL. Jurkat cells were seeded in 48-well culture plates at a density of 5.0×10^5 cells/mL in culture medium. To promote Interferon gamma (IFN-γ; IFNG) production, the cells were stimulated with or without the combination of PMA and Ionomycin in culture medium. THP-1 cells were treated with or without the LPS that promoted IL6 production. The culture supernatants were harvested by centrifugation and stored at −20° C. for cytokine analysis. The concentration of IFN-γ and IL6 were measured by ELISA kit (Invitrogen, Carlsbad, Calif., USA) according to the manufacturer's instructions. […] The concentration of cytokine was measured by IL6 ELISA kit (Invitrogen) according to the manufacturers.

IFN-γ [2] = assay: IFN-γ release (ELISA) of Jurkat cells co-treated with PMA, ionomycin and drug (Embodiments 3 and 4); details: for inhibition at 1 µM / inhibition at 5 µM: Homo sapiens, Jurkat, read-out: IFN-γ/cell viability lower than group 2 (PI alone); for inhibition at 1 µM: group 3 (THZ 1 μM); for inhibition at 5 µM: group 4 (THZ 5 μM); for effect on cytokine induction, in words: co-treatment with PMA + ionomycin
Method: as §1, §3
(§6) In the Embodiment, Jurkat cells were seeded in 48-well culture plates at a density of 5.0×10^5 cells/mL indifferent culture medium, and each of the culture medium contains PMA, ionomycin, and THZ in the proportions shown in Table 3 below.
(§7) After 24 and 48 hours, the supernatants were collected for cell viability analysis and cytokine analysis. The concentration of cytokine was measured by Human IFN-γ ELISA kit (Invitrogen) according to the manufacturers.
(§8) In the Embodiment, Jurkat cells were seeded in 48-well culture plates at a density of 5.0×10^5 cells/mL in different culture medium, and each of the culture medium contains PMA, ionomycin, and HH-F3 in the proportions shown in Table 4 below.
(§9) After 24, 30, and 48 hours, the supernatants were collected for cell viability analysis and cytokine analysis. The concentration of cytokine was measured by Human IFN-γ ELISA kit (Invitrogen) according to the manufacturers.

Jurkat cells = assay: Cell viability (MTS) of Jurkat cells co-treated with PMA, ionomycin and drug (Embodiments 3 and 4)
Method: as §1, §5, §6, §7, §8, §9

[3] = drug 1 μM, 6 h, IFN-γ normalized with cell viability
[4] = drug 1 μM, 6 h, Jurkat pretreated PMA 0.01 μg/mL + ionomycin 1 μM 24 h
[5] = drug 1 μM, 24 h, Jurkat pretreated PMA + ionomycin
[6] = drug 5 μM, 6 h, Jurkat pretreated PMA + ionomycin
[7] = drug 5 μM, 24 h, Jurkat pretreated PMA + ionomycin
[8] = drug 10 μM, 6 h, Jurkat pretreated PMA + ionomycin
[9] = drug 10 μM, 24 h, Jurkat pretreated PMA + ionomycin
[10] = drug 1 μM, 6 h, THP-1 pretreated LPS 0.1 μg/mL 16 h
[11] = drug 1 μM, 24 h, THP-1 pretreated LPS
[12] = drug 5 μM, 6 h, THP-1 pretreated LPS
[13] = drug 5 μM, 24 h, THP-1 pretreated LPS
[14] = drug 10 μM, 6 h, THP-1 pretreated LPS
[15] = drug 10 μM, 24 h, THP-1 pretreated LPS
[16] = drug 1 μM, 6 h, IL6 normalized with cell viability
[17] = group 3, THZ 1 μM co-treated with PI, 48 hr
[18] = group 4, THZ 5 μM co-treated with PI, 24 hr
[19] = group 4, THZ 5 μM co-treated with PI, 48 hr
[20] = at 24 hours after administering

O=C(CCCCCCC(=O)Nc1ccccc1)NO [SAHA, Suberoylanilide hydroxamic acid]
IFN-γ/cell viability (IFN-γ [1]; [3]): 25.5 pg/mL
IFN-γ/cell viability (IFN-γ [1]; drug 1 μM, 24 h): 33.8 pg/mL
IFN-γ/cell viability (IFN-γ [1]; drug 5 μM, 6 h): 28.2 pg/mL
IFN-γ/cell viability (IFN-γ [1]; drug 5 μM, 24 h): 34.0 pg/mL
IFN-γ/cell viability (IFN-γ [1]; drug 10 μM, 6 h): 28.0 pg/mL
IFN-γ/cell viability (IFN-γ [1]; drug 10 μM, 24 h): 32.0 pg/mL
Cell Viability (%) (Jurkat T cells; [4]): 70 ± 9%
Cell Viability (%) (Jurkat T cells; [5]): 53 ± 5%
Cell Viability (%) (Jurkat T cells; [6]): 65 ± 7%
Cell Viability (%) (Jurkat T cells; [7]): 59 ± 2%
Cell Viability (%) (Jurkat T cells; [8]): 65 ± 2%
Cell Viability (%) (Jurkat T cells; [9]): 60 ± 6%

CN1CCN(CCCN2c3ccccc3Sc3ccc(C(F)(F)F)cc32)CC1 [TFP, Trifluoperazine]
IFN-γ/cell viability (IFN-γ [1]; [3]): 41.8 pg/mL
IFN-γ/cell viability (IFN-γ [1]; drug 1 μM, 24 h): 39.7 pg/mL
IFN-γ/cell viability (IFN-γ [1]; drug 5 μM, 6 h): 35.7 pg/mL
IFN-γ/cell viability (IFN-γ [1]; drug 5 μM, 24 h): 32.5 pg/mL
IFN-γ/cell viability (IFN-γ [1]; drug 10 μM, 6 h): 40.9 pg/mL
IFN-γ/cell viability (IFN-γ [1]; drug 10 μM, 24 h): 35.6 pg/mL
Cell Viability (%) (THP-1 cells; [10]): 63 ± 6%
Cell Viability (%) (THP-1 cells; [11]): 96 ± 9%
Cell Viability (%) (THP-1 cells; [12]): 75 ± 4%
Cell Viability (%) (THP-1 cells; [13]): 82 ± 9%
Cell Viability (%) (THP-1 cells; [14]): 71 ± 8%
Cell Viability (%) (THP-1 cells; [15]): 75 ± 8%
Cell Viability (%) (Jurkat T cells; [4]): 91 ± 2%
Cell Viability (%) (Jurkat T cells; [5]): 72 ± 5%
Cell Viability (%) (Jurkat T cells; [6]): 88 ± 9%
Cell Viability (%) (Jurkat T cells; [7]): 70 ± 4%
Cell Viability (%) (Jurkat T cells; [8]): 86 ± 4%
Cell Viability (%) (Jurkat T cells; [9]): 72 ± 7%
IL6/cell viability (IL6; [16]): 43.9 pg/mL
IL6/cell viability (IL6; drug 1 μM, 24 h): 42.8 pg/mL
IL6/cell viability (IL6; drug 5 μM, 6 h): 35.6 pg/mL
IL6/cell viability (IL6; drug 5 μM, 24 h): 33.9 pg/mL
IL6/cell viability (IL6; drug 10 μM, 6 h): 32.5 pg/mL
IL6/cell viability (IL6; drug 10 μM, 24 h): 38.4 pg/mL

CSc1ccc2c(c1)N(CCC1CCCCN1C)c1ccccc1S2 (stereo not drawn) [THZ, Thioridazine]
inhibition at 1 µM (IFN-γ [2]; 24 hr): 46.5%
inhibition at 1 µM (IFN-γ [2]; 48 hr): 18.7%
inhibition at 5 µM (IFN-γ [2]; 24 hr): 45.3%
inhibition at 5 µM (IFN-γ [2]; 48 hr): 1%
effect on cytokine induction, in words (IFN-γ [2]): significantly attenuated cytokine induction in Jurkat cells
effect on cytokine induction, in words (IFN-γ [2]; listed as Thioridazine): able to reduce cytokine production
IFN-γ/cell viability (IFN-γ [2]; group 3, THZ 1 μM co-treated with PI, 24 hr): 34.9 ± 0.5 pg/mL
IFN-γ/cell viability (IFN-γ [2]; [17]): 32.6 ± 0.6 pg/mL
IFN-γ/cell viability (IFN-γ [2]; [18]): 35.7 ± 0.2 pg/mL
IFN-γ/cell viability (IFN-γ [2]; [19]): 39.7 ± 0.6 pg/mL
IFN-γ content in the cells reduced (IFN-γ [1]; 1 μM, after 6 hours, vs PMA + ionomycin alone): 18.6%
IFN-γ content in the cells reduced (IFN-γ [1]; 1 μM, after 24 hours): 28.2%
IFN-γ content in the cells reduced (IFN-γ [1]; 5 μM, after 6 hours): 23.7%
IFN-γ content in the cells reduced (IFN-γ [1]; 5 μM, after 24 hours): 57.7%
IFN-γ content in the cells reduced (IFN-γ [1]; 10 μM, after 6 hours): 36.2%
IFN-γ content in the cells reduced (IFN-γ [1]; 10 μM, after 24 hours): 52.2%
effect on IFN-γ content, in words (IFN-γ [1]; Jurkat, PMA + ionomycin, 6 hr and 24 hr): significantly decreased IFN-γ expression; also recorded: stronger effects to cells compared to TFP and SAHA
IFN-γ content in the cells is reduced at least (IFN-γ [1]; at 6 hours after administering): at least 18.6%
IFN-γ content in the cells is reduced at least (IFN-γ [1]; [20]): at least 28.2%
IFN-γ/cell viability (IFN-γ [1]; [3]): 38.4 pg/mL
IFN-γ/cell viability (IFN-γ [1]; drug 1 μM, 24 h): 24.4 pg/mL
IFN-γ/cell viability (IFN-γ [1]; drug 5 μM, 6 h): 36.0 pg/mL
IFN-γ/cell viability (IFN-γ [1]; drug 5 μM, 24 h): 14.4 pg/mL
IFN-γ/cell viability (IFN-γ [1]; drug 10 μM, 6 h): 30.1 pg/mL
IFN-γ/cell viability (IFN-γ [1]; drug 10 μM, 24 h): 16.3 pg/mL
Cell Viability (%) (THP-1 cells; [10]): 88 ± 7%
Cell Viability (%) (THP-1 cells; [11]): 103 ± 1%
Cell Viability (%) (THP-1 cells; [12]): 79 ± 5%
Cell Viability (%) (THP-1 cells; [13]): 101 ± 8%
Cell Viability (%) (THP-1 cells; [14]): 68 ± 4%
Cell Viability (%) (THP-1 cells; [15]): 87 ± 5%
effect on cell viability, in words (Jurkat cells; co-treatment with PMA + ionomycin): does not affect cell viability
Cell Viability (%) (Jurkat cells; [17]): 71 ± 4%
Cell Viability (%) (Jurkat cells; group 3, THZ 1 μM co-treated with PMA 0.01 μg/mL + ionomycin 1 μM, 24 hr): 81 ± 4%
Cell Viability (%) (Jurkat cells; [18]): 74 ± 6%
Cell Viability (%) (Jurkat cells; [19]): 65 ± 4%
Cell Viability (%) (Jurkat T cells; [4]): 79 ± 5%
Cell Viability (%) (Jurkat T cells; [5]): 69 ± 6%
Cell Viability (%) (Jurkat T cells; [6]): 77 ± 2%
Cell Viability (%) (Jurkat T cells; [7]): 69 ± 4%
Cell Viability (%) (Jurkat T cells; [8]): 77 ± 2%
Cell Viability (%) (Jurkat T cells; [9]): 55 ± 3%
IL-6 content in the cells reduced (IL6; 1 μM, after 6 hours, vs LPS alone): 20.7%
IL-6 content in the cells reduced (IL6; 1 μM, after 24 hours): 39.5%
IL-6 content in the cells reduced (IL6; 5 μM, after 6 hours): 37.1%
IL-6 content in the cells reduced (IL6; 5 μM, after 24 hours): 51.8%
IL-6 content in the cells reduced (IL6; 10 μM, after 6 hours): 45.9%
IL-6 content in the cells reduced (IL6; 10 μM, after 24 hours): 65.2%
IL-6 content in the cells is reduced at least (IL6; "at hours after administering" (number not given)): at least 20.7%
effect on IL-6 content, in words (IL6; Table 2, 6 hr and 24 hr): stronger effects to cells compared to TFP
IL-6 content in the cells is reduced at least (IL6; [20]): at least 39.5%
IL6/cell viability (IL6; [16]): 52.9 pg/mL
IL6/cell viability (IL6; drug 1 μM, 24 h): 41.3 pg/mL
IL6/cell viability (IL6; drug 5 μM, 6 h): 41.9 pg/mL
IL6/cell viability (IL6; drug 5 μM, 24 h): 32.9 pg/mL
IL6/cell viability (IL6; drug 10 μM, 6 h): 36.1 pg/mL
IL6/cell viability (IL6; drug 10 μM, 24 h): 23.7 pg/mL
